Source: patent US20190367516A1 (Bayer Pharma Aktiengesellschaft, priority 2015, published 2019)

Target: T1, human M2 receptor (Homo sapiens, UniProt P08172)
T1 sequence (P08172 1-466): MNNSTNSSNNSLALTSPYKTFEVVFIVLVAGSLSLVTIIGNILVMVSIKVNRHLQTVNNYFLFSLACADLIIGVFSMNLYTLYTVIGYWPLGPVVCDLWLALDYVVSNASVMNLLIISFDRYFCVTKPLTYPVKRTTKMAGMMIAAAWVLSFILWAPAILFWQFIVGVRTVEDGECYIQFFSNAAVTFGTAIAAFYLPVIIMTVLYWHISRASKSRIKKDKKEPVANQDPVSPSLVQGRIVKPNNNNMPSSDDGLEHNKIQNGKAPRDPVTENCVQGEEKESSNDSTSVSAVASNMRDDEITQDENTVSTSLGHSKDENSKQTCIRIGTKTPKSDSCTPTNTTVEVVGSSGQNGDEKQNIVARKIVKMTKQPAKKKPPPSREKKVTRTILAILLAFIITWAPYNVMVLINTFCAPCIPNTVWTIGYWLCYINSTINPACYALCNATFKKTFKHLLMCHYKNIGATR
Details: Receptor activity EC50, M2-GIRK1/4 activation test, acetylcholine at EC20; allosteric potency; in some cases mean values from two or more determinations

SMILES	EC50 [nM]
CC[C@H](NC(=O)c1cn(-c2ccc(F)cc2F)c2nc(N(C)CCF)ccc2c1=O)C(F)(F)F [Example 103, 1-(2,4-Difluorophenyl)-7-[(2-fluoroethyl)(methyl)amino]-4-oxo-N-[(2S)-1,1,1-trifluorobutan-2-yl]-1,4-dihydro-1,8-naphthyridine-3-carboxamide]	50
CCCC(NC(=O)c1cn(-c2ccc(F)cc2F)c2nc(N(C)CCF)ccc2c1=O)C(F)(F)F (centres unmarked) [Example 106, 1-(2,4-Difluorophenyl)-7-[(2-fluoroethyl)(methyl)amino]-4-oxo-N-[1,1,1-trifluoropentan-2-yl]-1,4-dihydro-1,8-naphthyridine-3-carboxamide]	32
CC(C)C(NC(=O)c1cn(-c2ccc(F)cc2F)c2nc(N(C)CCF)ccc2c1=O)C(F)(F)F (centres unmarked) [Example 108, 1-(2,4-Difluorophenyl)-7-[(2-fluoroethyl)(methyl)amino]-4-oxo-N-[1,1,1-trifluoro-3-methylbutan-2-yl]-1,4-dihydro-1,8-naphthyridine-3-carboxamide]	24
CN(CCF)c1ccc2c(=O)c(C(=O)NC3(C(F)(F)F)CC3)cn(-c3ccc(F)cc3F)c2n1 [Example 109, 1-(2,4-Difluorophenyl)-7-[(2-fluoroethyl)(methyl)amino]-4-oxo-N-[1-(trifluoromethyl)cyclopropyl]-1,4-dihydro-1,8-naphthyridine-3-carboxamide]	187
CN(CCF)c1ccc2c(=O)c(C(=O)NC34CCC(F)(CC3)CC4)cn(-c3ccc(F)cc3F)c2n1 [Example 110, 1-(2,4-Difluorophenyl)-N-(4-fluorobicyclo[2.2.2]oct-1-yl)-7-[(2-fluoroethyl)(methyl)amino]-4-oxo-1,4-dihydro-1,8-naphthyridine-3-carboxamide]	62
CN(CC(F)F)c1ccc2c(=O)c(C(=O)NC34CC5CC(CC(C5)C3)C4)cn(-c3ccc(F)cc3F)c2n1 [Example 112, 7-[(2,2-Difluoroethyl)(methyl)amino]-1-(2,4-difluorophenyl)-4-oxo-N-(tricyclo[3.3.1.1^3,7]dec-1-yl)-1,4-dihydro-1,8-naphthyridine-3-carboxamide]	29
CN(CC(F)F)c1ccc2c(=O)c(C(=O)NC(C(F)(F)F)C(F)(F)F)cn(-c3ccc(F)cc3F)c2n1 [Example 115, 7-[(2,2-Difluoroethyl)(methyl)amino]-1-(2,4-difluorophenyl)-N-[1,1,1,3,3,3-hexafluoropropan-2-yl)-4-oxo-1,4-dihydro-1,8-naphthyridine-3-carboxamide]	73
O=C(NC12CC3CC(CC(C3)C1)C2)c1cn(-c2ccc(F)cc2F)c2nc(N3CCC(O)(CO)CC3)ccc2c1=O [Example 116, 1-(2,4-Difluorophenyl)-7-[4-hydroxy-4-(hydroxymethyl)piperidin-1-yl]-4-oxo-N-(tricyclo[3.3.1.1^3,7]dec-1-yl)-1,4-dihydro-1,8-naphthyridine-3-carboxamide]	59
O=C(NC12CC3CC(CC(C3)C1)C2)c1cn(-c2ccc(F)cc2F)c2nc(N3CCOC[C@H]3CO)ccc2c1=O [Example 117, 1-(2,4-Difluorophenyl)-7-[(3R)-3-(hydroxymethyl)morpholin-4-yl]-4-oxo-N-(tricyclo[3.3.1.1^3,7]dec-1-yl)-1,4-dihydro-1,8-naphthyridine-3-carboxamide]	89
O=C(NC12CC3CC(CC(C3)C1)C2)c1cn(-c2ccc(F)cc2F)c2nc(NCC(F)F)ccc2c1=O [Example 120, 7-[(2,2-Difluoroethyl)amino]-1-(2,4-difluorophenyl)-4-oxo-N-(tricyclo[3.3.1.1^3,7]dec-1-yl)-1,4-dihydro-1,8-naphthyridine-3-carboxamide]	62
CCCC(NC(=O)c1cn(-c2ccc(F)cc2F)c2nc(NCC(F)F)ccc2c1=O)C(F)(F)F (centres unmarked) [Example 124, 7-[(2,2-Difluoroethyl)amino]-1-(2,4-difluorophenyl)-4-oxo-N-[1,1,1-trifluoropentan-2-yl]-1,4-dihydro-1,8-naphthyridine-3-carboxamide]	155
O=C(NC(C(F)(F)F)C(F)(F)F)c1cn(-c2ccc(F)cc2F)c2nc(NCC(F)F)ccc2c1=O [Example 126, 7-[(2,2-Difluoroethyl)amino]-1-(2,4-difluorophenyl)-N-(1,1,1,3,3,3-hexafluoropropan-2-yl)-4-oxo-1,4-dihydro-1,8-naphthyridine-3-carboxamide]	180
O=C(NC12CC3CC(CC(C3)C1)C2)c1cn(-c2ccc(F)cc2F)c2nc(N3CCSC3)ccc2c1=O [Example 129, 1-(2,4-Difluorophenyl)-4-oxo-7-(1,3-thiazolidin-3-yl)-N-(tricyclo[3.3.1.1^3,7]dec-1-yl)-1,4-dihydro-1,8-naphthyridine-3-carboxamide]	45
O=C(NC12CC3CC(CC(C3)C1)C2)c1cn(-c2ccc(F)cc2F)c2nc(N3CCOCC3)ccc2c1=O [Example 136, 1-(2,4-Difluorophenyl)-7-(morpholin-4-yl)-4-oxo-N-(tricyclo[3.3.1.1^3,7]dec-1-yl)-1,4-dihydro-1,8-naphthyridine-3-carboxamide]	24
CN(C)c1ccc2c(=O)c(C(=O)NC3(C)CCCCC3)cn(-c3ccc(F)cc3Cl)c2n1 [Example 156, 1-(2-Chloro-4-fluorophenyl)-7-(dimethylamino)-N-(1-methylcyclohexyl)-4-oxo-1,4-dihydro-1,8-naphthyridine-3-carboxamide]	86

More lines, now with the values ahead:

EC50 [nM]	SMILES
113	O=C(NC12CC3CC(CC(C3)C1)C2)c1cn(-c2ccc(F)cc2F)c2nc(N3CCS(=O)(=O)C3)ccc2c1=O [Example 130, 1-(2,4-Difluorophenyl)-7-(1,1-dioxido-1,3-thiazolidin-3-yl)-4-oxo-N-(tricyclo[3.3.1.1^3,7]dec-1-yl)-1,4-dihydro-1,8-naphthyridine-3-carboxamide]
157	O=C(NC12CC3CC(CC(C3)C1)C2)c1cn(-c2ccc(F)cc2F)c2nc(N3CC[S+]([O-])C3)ccc2c1=O (centres unmarked) [Example 131, 1-(2,4-Difluorophenyl)-7-(1-oxido-1,3-thiazolidin-3-yl)-4-oxo-N-(tricyclo[3.3.1.1^3,7]dec-1-yl)-1,4-dihydro-1,8-naphthyridine-3-carboxamide]
19	CC(C)C[C@@H](NC(=O)c1cn(-c2ccc(F)cc2F)c2nc(N(C)C)ccc2c1=O)C(F)(F)F [Example 133, 1-(2,4-Difluorophenyl)-7-(dimethylamino)-4-oxo-N-[(2R)-1,1,1-trifluoro-4-methylpentan-2-yl]-1,4-dihydro-1,8-naphthyridine-3-carboxamide]
32	CC(C)[C@H](NC(=O)c1cn(-c2ccc(F)cc2F)c2nc(N(C)C)ccc2c1=O)C(F)(F)F [Example 134, 1-(2,4-Difluorophenyl)-7-(dimethylamino)-4-oxo-N-[(2S)-1,1,1-trifluoro-3-methylbutan-2-yl]-1,4-dihydro-1,8-naphthyridine-3-carboxamide]
16	CC(C)C[C@H](NC(=O)c1cn(-c2ccc(F)cc2F)c2nc(N(C)C)ccc2c1=O)C(F)(F)F [Example 137, 1-(2,4-Difluorophenyl)-7-(dimethylamino)-4-oxo-N-[(2S)-1,1,1-trifluoro-4-methylpentan-2-yl]-1,4-dihydro-1,8-naphthyridine-3-carboxamide]
85	CN(C)c1ccc2c(=O)c(C(=O)NC(C(F)(F)F)C(F)(F)F)cn(-c3ccc(F)cc3F)c2n1 [Example 149, 1-(2,4-Difluorophenyl)-7-(dimethylamino)-N-(1,1,1,3,3,3-hexafluoropropan-2-yl)-4-oxo-1,4-dihydro-1,8-naphthyridine-3-carboxamide]
23	CN(C)c1ccc2c(=O)c(C(=O)NC3(C(F)(F)F)CCCC3)cn(-c3ccc(F)cc3F)c2n1 [Example 151, 1-(2,4-Difluorophenyl)-7-(dimethylamino)-4-oxo-N-[1-(trifluoromethyl)cyclopentyl]-1,4-dihydro-1,8-naphthyridine-3-carboxamide]
10	CN(C)c1ccc2c(=O)c(C(=O)NC34CCC(CC3)CC4)cn(-c3ccc(F)cc3Cl)c2n1 [Example 152, N-(Bicyclo[2.2.2]oct-1-yl)-1-(2-chloro-4-fluorophenyl)-7-(dimethylamino)-4-oxo-1,4-dihydro-1,8-naphthyridine-3-carboxamide]
104	CN(C)c1ccc2c(=O)c(C(=O)NC34CC5CC(C3)CC(C(F)(F)F)(C5)C4)cn(-c3ccc(F)cc3Cl)c2n1 [Example 153, 1-(2-Chloro-4-fluorophenyl)-7-(dimethylamino)-4-oxo-N-[3-(trifluoromethyl)tricyclo[3.3.1.1^3,7]dec-1-yl]-1,4-dihydro-1,8-naphthyridine-3-carboxamide]
158	CN(C)c1ccc2c(=O)c(C(=O)NC3CC34CCCCC4)cn(-c3ccc(F)cc3Cl)c2n1 (centres unmarked) [Example 154, 1-(2-Chloro-4-fluorophenyl)-7-(dimethylamino)-4-oxo-N-(spiro[2.5]oct-1-yl)-1,4-dihydro-1,8-naphthyridine-3-carboxamide]
173	CN(C)c1ccc2c(=O)c(C(=O)NC(C)(C)C)cn(-c3ccc(F)cc3Cl)c2n1 [Example 155, N-tert-Butyl-1-(2-chloro-4-fluorophenyl)-7-(dimethylamino)-4-oxo-1,4-dihydro-1,8-naphthyridine-3-carboxamide]
